We go through 21 compounds from patent US8063088B2 (Hoffmann-La Roche Inc., priority 2008, dated 2011).

Usually IC50 stands for the concentration at which inhibition is half-maximal.

Experiment [1] deals with T1, human LXR alpha (Homo sapiens, UniProt Q13133).
T1 construct: human LXR alpha (aa 164 to 447); unspecified tag ('tagged versions'); made in house; host or cells: E. coli BL21 (pLysS)
T1 sequence (Q13133 164-447): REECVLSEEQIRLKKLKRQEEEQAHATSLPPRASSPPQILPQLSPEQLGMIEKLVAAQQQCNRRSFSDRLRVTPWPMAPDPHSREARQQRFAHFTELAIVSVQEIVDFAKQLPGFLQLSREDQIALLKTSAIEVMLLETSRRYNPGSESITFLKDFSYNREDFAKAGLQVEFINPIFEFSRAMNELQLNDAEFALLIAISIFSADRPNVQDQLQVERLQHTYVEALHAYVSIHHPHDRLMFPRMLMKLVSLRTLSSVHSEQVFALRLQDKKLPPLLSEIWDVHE
Briefly: Radioligand binding assay (SPA), LXR alpha LBD. To be noted: radioligand displacement, LXRα-LBD on SPA beads; read-out: LXRalpha Binding IC50. On the procedure: (§1) The following tests were carried out in order to determine the activity of the compounds of the present invention. Background information on the performed assays can be found in: Nichols J S et al. “Development of a scintillation proximity assay for peroxisome proliferator-activated receptor gamma ligand binding domain”, Anal Biochem. 1998, 257: 112-119.
(§2) Mammalian expression vectors were constructed to express full-length human LXR alpha and LXR beta. Bacterial expression vectors were constructed to produce tagged versions of the ligand binding domains (LBD) of human LXR alpha (aa 164 to 447) and human LXR beta (aa 155 to 460). To accomplish this, the portions of the sequences encoding the LBDs were amplified from the full-length clones by PCR and then subcloned into the plasmid vectors. Final clones were verified by DNA sequence analysis (Willy et al., Genes Dev. 1995, 9:1033-45; Song et al., Proc Natl Acad Sci USA. 1994, 91:10809-13).
(§3) Induction, expression, and purification of LBD proteins were performed in E. coli strain BL21 (pLysS) cells by standard methods (Ref: Current Protocols in Molecular Biology, Wiley Press, edited by Ausubel et al).
(§4) Radioligand Binding Assay
(§5) LXR alpha and LXR beta receptor binding were assayed in buffer consisting of 50 mM HEPES, pH 7.4, 10 mM NaCl, 5 mM MgCl2. For each 96-well reaction, 500 ng of LXRα-LBD or 700 ng of LXR beta-LBD proteins were bound to 80 μg or 40 μg SPA beads respectively, in a final volume of 50 μl by shaking. The resulting slurry was incubated for 1 h at RT and centrifuged for 2 min at 1300×g. The supernatant containing unbound protein was removed, and the semi-dry pellet containing the receptor-coated beads was re-suspended in 50 μl of buffer. Radioligand (eg. 100,000 dpm of (N-(2,2,2-trifluoroethyl)-N-[4-(2,2,2-trifluoro-1-hydroxy-1-trifluoromethylethyl)-phenyl]-benzenesulfonamide)) was added, and the reaction incubated at RT for 1 h in the presence of test compounds, and then scintillation proximity counting was performed. All binding assays were performed in 96-well plates and the amount of bound ligand was measured on a Packard TopCount using OptiPlates (Packard). Dose response curves were measured within a range of concentration from 10^−10 M to 10^−4 M.

Experiment [2] addresses T2, human LXR beta (Homo sapiens, UniProt P55055).
T2 construct: human LXR beta (aa 155 to 460); unspecified tag ('tagged versions'); made in house; host or cells: E. coli BL21 (pLysS)
T2 sequence (P55055 155-460): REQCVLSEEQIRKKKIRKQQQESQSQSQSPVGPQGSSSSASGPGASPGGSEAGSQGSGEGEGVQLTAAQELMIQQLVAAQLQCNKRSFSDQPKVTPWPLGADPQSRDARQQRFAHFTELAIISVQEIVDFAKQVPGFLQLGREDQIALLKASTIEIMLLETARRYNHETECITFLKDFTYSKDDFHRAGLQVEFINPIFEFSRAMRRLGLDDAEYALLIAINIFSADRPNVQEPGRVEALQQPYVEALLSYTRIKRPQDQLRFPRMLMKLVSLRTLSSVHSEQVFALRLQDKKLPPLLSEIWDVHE
Briefly: Radioligand binding assay (SPA), LXR beta LBD. To be noted: radioligand displacement, LXR beta-LBD on SPA beads; read-out: LXRbeta Binding IC50. The procedure: as §1, §2, §3, §4, §5
For orientation: Displacement assays read how much labelled ligand stays bound in the presence of the test substance.

On to `CS(=O)(=O)c1cccc(-c2cccc([C@@H]3CN(S(=O)(=O)c4ccccc4)CC[C@H]3c3ccccc3)c2)c1` (racemic) [Example 36, trans-1-Benzenesulfonyl-3-(3′-methanesulfonyl-biphenyl-3-yl)-4-phenyl-piperidine], for which the IC50 was found to be 0.07 µM in experiment [1] and 0.025 µM in experiment [2].

Regarding `NCc1cccc(-c2cccc([C@@H]3CN(S(=O)(=O)c4ccccc4)CC[C@H]3c3ccccc3)c2)c1` (relative stereo) [Example 37], the results for the IC50 in experiment [1] and in experiment [2] were 2.54 µM and 2.09 µM, respectively.

For `CC(C)(C)OC(=O)N1CC[C@@H](c2ccccc2)[C@H](c2cccc(-c3cccc(S(C)(=O)=O)c3)c2)C1` (relative stereo) [Example 38, trans-3-(3′-Methanesulfonyl-biphenyl-3-yl)-4-phenyl-piperidine-1-carboxylic acid tert-butyl ester], the IC50 in experiment [1] came out at 0.16 µM; in experiment [2] it was 0.025 µM.

With `CS(=O)(=O)c1cccc(-c2cccc([C@@H]3CN(S(=O)(=O)c4ccccc4)CC[C@@H]3c3ccccc3)c2)c1` (relative stereo) [Example 39, cis-1-Benzenesulfonyl-3-(3′-methanesulfonyl-biphenyl-3-yl)-4-phenyl-piperidine], the IC50 worked out at 3.03 µM in experiment [1] and 2.75 µM in experiment [2].

For the compound `Cc1ccc(C)c(-c2cccc([C@@H]3CN(C(=O)OC(C)(C)C)CC[C@@H]3c3ccccc3)c2)c1` (relative stereo) [Example 41, cis-3-(2′,5′-Dimethyl-biphenyl-3-yl)-4-phenyl-piperidine-1-carboxylic acid tert-butyl ester], the IC50 in experiment [1] came out at 27.4 µM; in experiment [2], 36.8 µM.

On to `CC(C)(C)OC(=O)N1CC[C@H](c2ccccc2)[C@H](c2cccc(-c3cccc(S(C)(=O)=O)c3)c2)C1` (relative stereo) [Example 42, cis-3-(3′-Methanesulfonyl-biphenyl-3-yl)-4-phenyl-piperidine-1-carboxylic acid tert-butyl ester], for which the IC50 in experiment [1] was 2.83 µM; in experiment [2], 0.61 µM.

For `CC(C)(C)OC(=O)N1CC[C@@H](c2ccccc2)[C@H](c2cccc(-c3cncc(S(C)(=O)=O)c3)c2)C1` (relative stereo) [Example 43, trans-3-[3-(5-Methanesulfonyl-pyridin-3-yl)-phenyl]-4-phenyl-piperidine-1-carboxylic acid tert-butyl ester], the IC50 in experiment [1] was determined as 3.98 µM; in experiment [2] it was 0.755 µM.

With `Cc1cccc(-c2cccc([C@@H]3CN(C(=O)OC(C)(C)C)CC[C@H]3c3ccccc3)c2)c1` (relative stereo) [Example 44, trans-3-(3′-Methyl-biphenyl-3-yl)-4-phenyl-piperidine-1-carboxylic acid tert-butyl ester], the figures for the IC50 in experiment [1] and in experiment [2] were 53.7 µM and 5.51 µM, respectively.

Regarding `CC(C)(C)OC(=O)N1C[C@H](c2cccc(-c3cccc(S(C)(=O)=O)c3)c2)[C@H](c2ccccc2)CC1=O` (relative stereo) [Example 45, Cis-5-(3′-Methanesulfonyl-biphenyl-3-yl)-2-oxo-4-phenyl-piperidine-1-carboxylic acid tert-butyl ester], the IC50 in experiment [1] came to 0.24 µM; in experiment [2], 0.021 µM.

As for `CC(C)(C)OC(=O)N1C[C@H](c2cccc(-c3cncc(S(C)(=O)=O)c3)c2)[C@H](c2ccccc2)CC1=O` (relative stereo) [Example 46, cis-5-[3-(5-Methanesulfonyl-pyridin-3-yl)-phenyl]-2-oxo-4-phenyl-piperidine-1-carboxylic acid tert-butyl ester], the concentration for half-maximal inhibition (IC50) in experiment [1] came out at 8.21 µM; in experiment [2], 0.385 µM.

As for `Cc1ccc(C)c(-c2cccc([C@H]3CN(C(=O)OC(C)(C)C)C(=O)C[C@H]3c3ccccc3)c2)c1` (relative stereo) [Example 47, Cis-5-(2′,5′-Dimethyl-biphenyl-3-yl)-2-oxo-4-phenyl-piperidine-1-carboxylic acid tert-butyl ester], the IC50 in experiment [1] was 0.185 µM; in experiment [2] it was 0.22 µM.

In the case of `O=C(O)c1ccc(-c2ccc(C3CN(S(=O)(=O)c4ccccc4)C(=O)N3c3ccccc3)cc2)cc1` (stereo not drawn) [Example 1, 4′-(1-Benzenesulfonyl-2-oxo-3-phenyl-imidazolidin-4-yl)-biphenyl-4-carboxylic acid], the concentration for half-maximal inhibition (IC50) was found to be 11.6 µM in experiment [1] and 2.88 µM in experiment [2].

For the compound `O=C(O)c1cccc(-c2ccc(C3CN(S(=O)(=O)c4ccccc4)C(=O)N3c3ccccc3)cc2)c1` (stereo not drawn) [Example 2, 4′-(1-Benzenesulfonyl-2-oxo-3-phenyl-imidazolidin-4-yl)-biphenyl-3-carboxylic acid], the IC50 in experiment [1] worked out at 7.97 µM; in experiment [2], 8.05 µM.

Consider `Cc1ccc(C)c(-c2ccc(C3CN(S(=O)(=O)c4ccccc4)C(=O)N3c3ccccc3)cc2)c1` (stereo not drawn) [Example 3, 1-Benzenesulfonyl-4-(2′,5′-dimethyl-biphenyl-4-yl)-3-phenyl-imidazolidin-2-one], for which the 50% inhibitory concentration (IC50) turned out to be 10.2 µM in experiment [1] and 5.25 µM in experiment [2].

With `CS(=O)(=O)c1cccc(-c2ccc(C3CN(S(=O)(=O)c4ccccc4)C(=O)N3c3ccccc3)cc2)c1` (stereo not drawn) [Example 4, 1-Benzenesulfonyl-4-(3′-methanesulfonyl-biphenyl-4-yl)-3-phenyl-imidazolidin-2-one], the IC50 is 1.68 µM in experiment [1] and 0.28 µM in experiment [2].

With `O=C(O)c1ccc(-c2cccc(C3CN(S(=O)(=O)c4ccccc4)C(=O)N3c3ccccc3)c2)cc1` (stereo not drawn) [Example 5, 3′-(1-Benzenesulfonyl-2-oxo-3-phenyl-imidazolidin-4-yl)-biphenyl-4-carboxylic acid], the IC50 in experiment [1] is 4.14 µM; in experiment [2], 5.42 µM.

For `O=C(O)c1cccc(-c2cccc(C3CN(S(=O)(=O)c4ccccc4)C(=O)N3c3ccccc3)c2)c1` (stereo not drawn) [Example 6, 3′-(1-Benzenesulfonyl-2-oxo-3-phenyl-imidazolidin-4-yl)-biphenyl-3-carboxylic acid], the 50% inhibitory concentration (IC50) in experiment [1] was found to be 5.72 µM; in experiment [2], 9.03 µM.

With `CS(=O)(=O)c1cccc(-c2cccc(C3CN(S(=O)(=O)c4ccccc4)C(=O)N3c3ccccc3)c2)c1` (stereo not drawn) [Example 7, 1-Benzenesulfonyl-4-(3′-methanesulfonyl-biphenyl-3-yl)-3-phenyl-imidazolidin-2-one], the IC50 was determined as 0.09 µM in experiment [1] and 0.004 µM in experiment [2].

For the compound `CS(=O)(=O)Nc1cccc(-c2cccc(C3CN(S(=O)(=O)c4ccccc4)C(=O)N3c3ccccc3)c2)c1` (stereo not drawn) [Example 8, N-[3′-(1-Benzenesulfonyl-2-oxo-3-phenyl-imidazolidin-4-yl)-biphenyl-3-yl]-methanesulfonamide], the IC50 in experiment [1] was found to be 0.335 µM; in experiment [2] it was 0.0745 µM.

`CS(=O)(=O)Nc1cccc(-c2ccc(C3CN(S(=O)(=O)c4ccccc4)C(=O)N3c3ccccc3)cc2)c1` (stereo not drawn) [Example 9, N-[4′-(1-Benzenesulfonyl-2-oxo-3-phenyl-imidazolidin-4-yl)-biphenyl-3-yl]-methanesulfonamide]: the IC50 in experiment [1] was 0.425 µM; in experiment [2] it was 0.36 µM.

As for `O=C(O)CCc1ccc(-c2cccc(C3CN(S(=O)(=O)c4ccccc4)C(=O)N3c3ccccc3)c2)cc1` (stereo not drawn) [Example 10, 3-[3′-(1-Benzenesulfonyl-2-oxo-3-phenyl-imidazolidin-4-yl)-biphenyl-4-yl]-propionic acid], the figures for the IC50 in experiment [1] and in experiment [2] were 3.35 µM and 2.69 µM, respectively.
